From patent US8258114B2, “Modulation of glucose-6-phosphatase translocase expression” (Isis Pharmaceuticals, Inc., priority 2004, dated 2012)
Like-named read-outs stand apart in the source and are kept apart here.

What was measured:
[1] = test system: rat glucose-6-phosphatase translocase mRNA; assay: Reduction of glucose-6-phosphatase translocase mRNA in liver or kidney of ZDF rats (Table 15); assay type: in vivo; details: Rattus norvegicus, rosiglitazone alone 3 mg/kg daily in food
Procedure: Saline-injected animals served as a control treatment group. At the end of the treatment period, animals were sacrificed and target reduction in liver and kidney were measured by real-time PCR as described in other examples herein. […] For example, the following primer-probe set was designed to hybridize to rat glucose-6-phosphatase translocase sequences cited in Table 1: Forward primer: [NT] (incorporated herein as SEQ ID NO: 339) Reverse primer: [NT] (incorporated herein as SEQ ID NO: 340) PCR probe: […] (incorporated herein as SEQ ID NO: 341), where FAM is the fluorescent dye and TAMRA is the quencher dye.

[2] = test system: catalytic subunit of glucose-6-phosphatase (G6PC) mRNA; assay: Reduction of catalytic subunit of glucose-6-phosphatase (G6PC) mRNA in liver or kidney of ZDF rats (Table 15); assay type: in vivo, rat; details: Rattus norvegicus, rosiglitazone alone 3 mg/kg daily in food
Procedure: (§1) Saline-injected animals served as a control treatment group.
At the end of the treatment period, animals were sacrificed and target reduction in liver and kidney were measured by real-time PCR as described in other examples herein. Also measured were reductions in the catalytic subunit of glucose-6-phosphatase (G6PC) using a primer-probe set designed to hybridize to that mRNA. For example, the following primer-probe set was designed to hybridize to rat glucose-6-phosphatase translocase sequences cited in Table 1:
Results for each treatment group are shown in Table 15 as the average percent reduction in glucose-6-phosphatase translocase levels or in G6PC as compared to saline treated control.

[3] = Plasma glucose levels of ZDF rats, alone or in combination with rosiglitazone (Table 16); assay type: in vivo, rat; details: rosiglitazone alone 3 mg/kg daily
Procedure: as §1
Plasma glucose levels were evaluated at the beginning of the study (Wk 0), during the first week of treatment (Wk 1), during the third week of treatment (Wk 3), and during the fifth week of treatment (Wk 5).

aged Zucker fa/fa rats = assay: Oral glucose tolerance test in ZDF rats (Table 17); assay type: in vivo, rat; details: week 3, rosiglitazone alone 3 mg/kg daily
Procedure: as §1
To further evaluate the effects of ISIS 366228 alone or in combination with rosiglitazone, oral glucose tolerance tests were performed during the third week of treatment. To provide a baseline glucose level, fasted blood glucose levels were measured before the challenge. Glucose was administered by oral gavage via an 18 gauge gavage needle at a dose of 1 g/kg. Plasma glucose levels were measured for 15, 30, 60, 90, and 120 minutes post-challenge, using a glucose analyzer (for example, an Ascencia Glucometer Elite XL, Bayer, Tarrytown, N.Y.).

[4] = Plasma lipids (cholesterol, triglycerides, free fatty acids) in ZDF rats (Table 21); assay type: in vivo, rat
Procedure: as §1
To further assess the physiological effects resulting from inhibition of target mRNA with antisense oligonucleotide alone or in combination with rosiglitazone, the rats were evaluated throughout the treatment period for plasma free fatty acids, plasma cholesterol, and plasma triglyceride levels. Free fatty acids, triglycerides and cholesterol were measured by routine clinical analyzer instruments (e.g. Olympus Clinical Analyzer, Melville, N.Y.). Glucose levels were measured using a glucose analyzer, for example a YSI glucose analyzer (YSI Scientific, Yellow Springs, Ohio).

[5] = Body weights of ZDF rats (Table 18); details: for Body weight: rosiglitazone alone 3 mg/kg daily
[6] = Liver transaminases ALT and AST in ZDF rats; details: week 5
Procedure: (§2) Male Zucker fa/fa rats, about 17 to 18 weeks of age, purchased from Charles River Laboratories (Wilmington, Mass.), are maintained on a normal rodent diet. Animals are placed into treatment groups of 8 animals each. […] Another treatment group received the food-administered daily doses of 3 mg/kg of rosiglitazone alone. Saline-injected animals served as a control treatment group.
The liver transaminases, ALT and AST, were measured throughout the study.

[7] = Body fat percentage by MRI in Zucker rats (Table 19); details: for % Fat: MRI, rosiglitazone alone 3 mg/kg daily
Procedure: as §2
Also monitored throughout the study was body composition. Baseline body composition was measured by MRI prior to the start of treatment (BL). Body composition was also measured during week 3 (Wk 3) and during week 5 (Wk 5) of treatment.

[8] = Tissue weights (kidney, spleen, liver, fat pad) of ZDF rats (Table 20); details: end of study, rosiglitazone alone
Procedure: Male Zucker fa/fa rats, about 17 to 18 weeks of age, purchased from Charles River Laboratories (Wilmington, Mass.), are maintained on a normal rodent diet. Animals are placed into treatment groups of 8 animals each. One treatment group was dosed subcutaneously twice weekly with 12.5 mg/kg of ISIS 366228 (SEQ ID NO: 203). Another treatment group was dosed twice weekly with 25 mg/kg of ISIS 366228. Other treatment groups were dosed with 12.5 mg/kg or 25 mg/kg ISIS 366228 twice weekly in combination with daily 3 mg/kg doses of rosiglitazone (Rosi) administered in powdered food. Another treatment group received the food-administered daily doses of 3 mg/kg of rosiglitazone alone. Saline-injected animals served as a control treatment group.
Tissue weights were also determined at the end of the study.

Structure (SMILES): CN(CCOc1ccc(CC2SC(=O)NC2=O)cc1)c1ccccn1 (stereo not shown) [Rosiglitazone, rosiglitazone, reference compound]
- inhibition at 3 mg/kg ([1]; read-out: % Inhibition of glucose-6-phosphatase translocase, Kidney): 0%
- inhibition at 3 mg/kg ([1]; read-out: % Inhibition of glucose-6-phosphatase translocase, Liver): 46%
- inhibition at 3 mg/kg ([2]; read-out: % Inhibition of G6PC, Kidney): 5%
- inhibition at 3 mg/kg ([2]; read-out: % Inhibition of G6PC, Liver): 63%
- Plasma glucose ([3]; Wk 0): 570 mg/dL
- Plasma glucose ([3]; Wk 1): 462 mg/dL
- Plasma glucose ([3]; Wk 3): 487 mg/dL
- Plasma glucose ([3]; Wk 5): 498 mg/dL
- plasma glucose, OGTT (aged Zucker fa/fa rats; 0 min (fasted)): 251 mg/dL
- plasma glucose, OGTT (aged Zucker fa/fa rats; 15 min): 429 mg/dL
- plasma glucose, OGTT (aged Zucker fa/fa rats; 30 min): 490 mg/dL
- plasma glucose, OGTT (aged Zucker fa/fa rats; 60 min): 417 mg/dL
- plasma glucose, OGTT (aged Zucker fa/fa rats; 90 min): 409 mg/dL
- plasma glucose, OGTT (aged Zucker fa/fa rats; 120 min): 384 mg/dL
- plasma cholesterol (CHOL) ([4]; Wk 0, rosiglitazone alone): 202 mg/dL
- plasma triglycerides (TRIG) ([4]; Wk 0, rosiglitazone alone): 478 mg/dL
- plasma cholesterol (CHOL) ([4]; Wk 1, rosiglitazone alone): 217 mg/dL
- plasma triglycerides (TRIG) ([4]; Wk 1, rosiglitazone alone): 300 mg/dL
- plasma cholesterol (CHOL) ([4]; Wk 3, rosiglitazone alone): 220 mg/dL
- plasma triglycerides (TRIG) ([4]; Wk 3, rosiglitazone alone): 327 mg/dL
- plasma cholesterol (CHOL) ([4]; Wk 5, rosiglitazone alone): 234 mg/dL
- plasma triglycerides (TRIG) ([4]; Wk 5, rosiglitazone alone): 384 mg/dL
- body weight (in words) [5]: associated with increased body weight
- Body weight ([5]; Wk 0): 404 g
- Body weight ([5]; Wk 1): 422 g
- Body weight ([5]; Wk 2): 444 g
- Body weight ([5]; Wk 3): 453 g
- Body weight ([5]; Wk 4): 465 g
- liver transaminases ALT and AST (in words) [6]: reductions in levels of these indicators of liver function
- body fat percentage (in words) [7]: resulted in increased body fat
- % Fat ([7]; BL (baseline)): 24%
- % Fat ([7]; Wk 3): 32%
- % Fat ([7]; Wk 5): 36%
- Fat pad weight [8]: 9 grams
- Kidney weight [8]: 4 grams
- Liver weight [8]: 21 grams
- Spleen weight [8]: 0.6 grams
